Results: ChEMBL document CHEMBL3259764, “Pim kinase inhibitory and antiproliferative activity of a novel series of meridianin C derivatives” (Bioorg Med Chem Lett, 2014)

Legend:
[1] = target: Serine/threonine-protein kinase pim-1 (Homo sapiens, UniProt P11309); test: Inhibition of PIM1 kinase (unknown origin) using 5-FAM-labeled BAD peptide as substrate after 90 mins by fluorescence polarization assay
[2] = target: Serine/threonine-protein kinase pim-3 (Homo sapiens, UniProt Q86V86); test: Inhibition of PIM3 kinase (unknown origin) using 5-FAM-labeled BAD peptide as substrate after 90 mins by fluorescence polarization assay
[3] = target: Serine/threonine-protein kinase pim-2 (Homo sapiens, UniProt Q9P1W9); test: Inhibition of PIM2 kinase (unknown origin) using 5-FAM-labeled BAD peptide as substrate after 90 mins by fluorescence polarization assay
Sequence of Serine/threonine-protein kinase pim-2 (Q9P1W9 whole entry): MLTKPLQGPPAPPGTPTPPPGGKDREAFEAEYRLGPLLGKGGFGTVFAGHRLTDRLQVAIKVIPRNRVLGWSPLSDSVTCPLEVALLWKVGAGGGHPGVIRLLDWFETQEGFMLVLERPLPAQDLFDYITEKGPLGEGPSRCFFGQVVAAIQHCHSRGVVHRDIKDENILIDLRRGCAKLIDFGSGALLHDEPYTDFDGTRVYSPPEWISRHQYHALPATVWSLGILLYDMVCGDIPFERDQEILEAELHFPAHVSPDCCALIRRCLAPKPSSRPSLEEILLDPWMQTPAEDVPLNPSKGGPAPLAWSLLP

[4] = Antiproliferative activity against human MV411 cells assessed as cell viability after 24 hrs by MTS assay; assay type: functional, cell-based; conditions: MV4-11, 24 h
K562 = test: Antiproliferative activity against human K562 cells assessed as cell viability after 24 hrs by MTS assay; assay type: functional, cell-based; conditions: K562, 24 h
[5] = Antiproliferative activity against human Jurkat E6-1 cells assessed as cell viability after 24 hrs by MTS assay; assay type: functional, cell-based
[6] = target: CDK2/Cyclin A2 (Homo sapiens) (UniProt P24941+P20248); test: Inhibition of CDK2/cyclinA kinase (unknown origin) at 10 uM; assay type: protein-complex assay
Caco-2 = test: Permeability across human Caco2 cells; assay type: ADME, cell-based

Sequence of Serine/threonine-protein kinase pim-1 (P11309 whole entry): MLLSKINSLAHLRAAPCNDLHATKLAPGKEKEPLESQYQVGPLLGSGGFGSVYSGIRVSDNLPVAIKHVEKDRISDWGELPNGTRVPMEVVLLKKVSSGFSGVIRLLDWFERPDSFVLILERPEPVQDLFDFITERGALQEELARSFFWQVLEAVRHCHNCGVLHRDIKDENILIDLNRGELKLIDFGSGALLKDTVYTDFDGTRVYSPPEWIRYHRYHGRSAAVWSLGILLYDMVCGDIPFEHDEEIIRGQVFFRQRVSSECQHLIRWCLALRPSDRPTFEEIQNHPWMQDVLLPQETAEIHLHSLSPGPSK

Structure (SMILES)	IC50 [1] [nM]	IC50 [2] [nM]	IC50 [3] [nM]	EC50 [4] [nM]	EC50 (K562) [nM]	EC50 [5] [nM]	inhibition [6] [%]	permeability (Caco-2)
CN(C)/C=C/C(=O)c1c[nH]c2ccc(-c3cncc(OCCN(C)C)n3)cc12	1130	–	–	–	–	–	–	–
CN(C)CCCNc1cncc(-c2ccc3[nH]cc(-c4ccnc(N)n4)c3c2)n1	18.3	31.3	630	–	–	–	–	–
CCN(CC)CCOc1cncc(-c2ccc3[nH]cc(-c4ccnc(N)n4)c3c2)n1	25.8	30	590	3300	17900	14400	–	–
CN(C)CCNc1cncc(-c2ccc3[nH]cc(C(=O)C4CC4)c3c2)n1	270	–	–	–	–	–	–	–
CCN(CC)CCCNc1cncc(-c2ccc3[nH]cc(-c4ccnc(N)n4)c3c2)n1	17.2	30.2	920	–	–	–	–	–
CC(=O)c1c[nH]c2ccc(-c3cncc(NCCN(C)C)n3)cc12	270	–	–	–	–	–	–	–
Nc1nccc(-c2c[nH]c3ccccc23)n1	–	–	–	–	–	–	54	–
CN(C)CCCOc1cncc(-c2ccc3[nH]cc(-c4ccnc(N)n4)c3c2)n1	18.7	20.5	540	–	–	–	–	–
CCN(CC)CCCOc1cncc(-c2ccc3[nH]cc(-c4ccnc(N)n4)c3c2)n1	34.5	55.7	660	1500	13700	10900	–	–
CN(C)/C=C/C(=O)c1c[nH]c2ccc(-c3cncc(NCCN(C)C)n3)cc12	370	–	–	–	–	–	–	–
CCN(CC)CCNc1cncc(-c2ccc3[nH]cc(-c4ccnc(N)n4)c3c2)n1	2.8	9.9	310	–	–	–	–	–
CN(C)CCOc1cncc(-c2ccc3[nH]cc(-c4ccnc(N)n4)c3c2)n1	20.4	21.7	380	2900	18500	13500	–	–
CCOc1cncc(-c2ccc3[nH]cc(-c4ccnc(N)n4)c3c2)n1	45.1	50.9	740	500	20800	15000	–	permeable
Nc1nccc(-c2c[nH]c3ccc(Br)cc23)n1 [MERIDIANIN C]	1040	–	–	–	–	–	–	–
CN(C)CCOc1cncc(-c2ccc3[nH]cc(C(=O)c4ccccc4)c3c2)n1	400	–	–	–	–	–	–	–
CN(C)CCNc1cncc(-c2ccc3[nH]cc(-c4ccnc(N)n4)c3c2)n1	3.4	6.5	110	–	–	–	–	permeable
CN(C)CCN(C)c1cncc(-c2ccc3[nH]cc(-c4ccnc(N)n4)c3c2)n1	8	7.8	180	–	–	–	–	–
